# Source: PubChem BioAssay AID743319 (Broad Institute, 2014)
# Calls of active or inactive are those of the source.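 Rule for the calls: active = fitted curve reaches 200% activation at or below the highest valid dose tested for that compound; inconclusive = flat fit between 30 and 70% activation, or unreliable fit; inactive = the rest.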
# Target: Endoplasmic reticulum aminopeptidase 2 (Homo sapiens) (UniProt Q6P179)
# Test: enhanced ERAP2 Arg-AMC hydrolysis – biochemical, fluorescence plate reader, cherry-picked samples, selectivity assay for selective ERAP1 modulator project, dose response (AID 743319)
# Settings: recombinant ERAP2, Arg-AMC cleavage fluorescence, 1 h
# Endoplasmic reticulum aminopeptidase 2 (Homo sapiens), sequence (Q6P179 whole entry, looked up): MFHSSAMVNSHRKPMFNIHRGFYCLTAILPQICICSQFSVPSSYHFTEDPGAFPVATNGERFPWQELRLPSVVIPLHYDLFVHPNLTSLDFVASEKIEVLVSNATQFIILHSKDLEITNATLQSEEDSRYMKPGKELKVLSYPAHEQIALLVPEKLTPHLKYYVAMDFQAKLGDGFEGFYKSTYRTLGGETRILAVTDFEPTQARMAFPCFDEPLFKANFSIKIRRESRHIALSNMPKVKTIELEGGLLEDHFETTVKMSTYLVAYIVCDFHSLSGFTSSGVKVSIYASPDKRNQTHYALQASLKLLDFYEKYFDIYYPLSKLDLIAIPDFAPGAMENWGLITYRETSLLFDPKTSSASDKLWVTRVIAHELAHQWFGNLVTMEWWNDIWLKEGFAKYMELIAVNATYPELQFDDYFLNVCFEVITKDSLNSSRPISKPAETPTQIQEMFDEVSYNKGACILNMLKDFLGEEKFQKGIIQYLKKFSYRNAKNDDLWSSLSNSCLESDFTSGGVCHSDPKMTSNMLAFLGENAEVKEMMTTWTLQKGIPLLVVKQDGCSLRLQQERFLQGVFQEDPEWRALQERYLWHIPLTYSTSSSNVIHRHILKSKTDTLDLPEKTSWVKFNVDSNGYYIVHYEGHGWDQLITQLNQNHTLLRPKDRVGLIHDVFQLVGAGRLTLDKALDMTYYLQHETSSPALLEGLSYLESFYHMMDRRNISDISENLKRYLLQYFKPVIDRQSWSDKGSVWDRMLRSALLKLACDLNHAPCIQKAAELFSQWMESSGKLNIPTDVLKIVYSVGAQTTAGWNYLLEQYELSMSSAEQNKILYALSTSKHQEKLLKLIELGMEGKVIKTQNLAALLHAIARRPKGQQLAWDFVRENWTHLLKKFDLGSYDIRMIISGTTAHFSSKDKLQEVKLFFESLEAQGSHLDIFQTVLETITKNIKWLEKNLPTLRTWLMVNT
row,Compound,AC200
1,Cc1cc(=O)oc2c(CN3CCCC3)c(O)c(Cl)cc12,1400 nM
2,CC(=O)N1[C@@H]2c3ccc(/C=C/c4ccccc4)c(=O)n3C[C@H]1[C@H](CO)[C@H]2C(=O)N1CCOCC1,2030 nM
3,CCNC(=O)[C@@H]1[C@@H](CO)[C@@H]2Cn3c(ccc(/C=C/c4ccccc4)c3=O)[C@H]1N2C(=O)C1CCCC1,1590 nM
4,CN(C)Cc1c(O)ccc2cc(-c3nc4ccccc4n3C)c(=O)oc12,445 nM
5,O=c1oc2cc(O)ccc2cc1S(=O)(=O)c1ccccc1,592 nM
6,COc1ccc(CNCc2c(O)c(Cl)cc3c(C)c(C)c(=O)oc23)c(OC)c1,1030 nM
7,O=c1cc(CN2CCN(Cc3ccccc3)CC2)c2ccc(O)cc2o1,3540 nM
8,Cc1c(C)c2ccc(O)c(CN3CCCC3)c2oc1=O,2100 nM
9,CCCCc1cc(=O)oc2cc(O)ccc12,3980 nM
10,O=C(NCc1ccccn1)[C@@H]1[C@@H](CO)[C@@H]2Cn3c(ccc(/C=C/c4ccccc4)c3=O)[C@H]1N2CC1CC1,2270 nM
11,Cc1ccc(-c2cc(C(=O)N3CCCC3)c3ccccc3n2)s1,> 11000 nM (inactive)
12,CCN1[C@@H]2c3ccc(/C=C/c4ccccc4)c(=O)n3C[C@H]1[C@H](CO)[C@H]2C(=O)N1CCOCC1,3520 nM
13,COCC(=O)N1[C@@H]2c3ccc(/C=C/c4ccccc4)c(=O)n3C[C@H]1[C@H](CO)[C@H]2C(=O)N1CCOCC1,1500 nM
14,COc1cc2cc(C(=O)N3CCN(Cc4ccc5c(c4)OCO5)CC3)c(=O)oc2cc1OC,> 5600 nM (inactive)
15,COc1cc2ccc(=O)oc2cc1O,678 nM
16,O=c1ccc2cc(O)c(O)cc2o1,3270 nM
17,COc1ccc(-c2cc3ccc(O)cc3oc2=O)cc1,775 nM
18,C[C@@H]1CCCCO[C@@H](CN(C)C(=O)CCC(F)(F)F)[C@@H](C)CN([C@@H](C)CO)C(=O)c2cc(NS(=O)(=O)c3ccc(Cl)cc3)ccc2O1,> 10000 nM (inactive)
19,CC1CN(Cc2cc(=O)oc3cc(O)c(Cl)cc23)CC(C)O1 (configuration not stated),2520 nM
20,C/C(=N\NC(=O)CC#N)c1cc2ccc(O)cc2oc1=O,2300 nM
21,COC(=O)[C@H]1[C@H](CO)[C@H]2Cn3c(ccc(/C=C/c4ccccc4)c3=O)[C@@H]1N2C(=O)C1CCC1,1600 nM
22,CCCc1cc(=O)oc2c(CN(CC)CC)c(O)c(Cl)cc12,1330 nM
23,O=c1ccc2cc(O[C@@H]3O[C@@H](CO)[C@H](O)[C@@H](O)[C@@H]3O)c(O)cc2o1,744 nM
24,N#Cc1c(N)n(CCNC(=O)c2ccccc2)c2nc3ccccc3nc12,4630 nM
25,CCN(CC)Cc1c(O)c(Cl)cc2c(C)cc(=O)oc12,1240 nM
26,O=c1oc2c(CN3CCN(CCO)CC3)c(O)ccc2cc1-c1ccccn1,606 nM
27,Cc1c(-c2ccccc2)c(=O)oc2cc(O)ccc12,2340 nM
28,CCc1c(C)c2cc(Cl)c(O)c(CN(CC)CC)c2oc1=O,1170 nM
29,Cc1cc(=O)oc2c(CN3CCN(CCO)CC3)c(O)ccc12,3010 nM

# Same assay, conditions: recombinant ERAP2, Arg-AMC cleavage fluorescence, 1 h; at 5 µM (top of the series)
row,Compound,activation
1,CCCN(C)C[C@@H]1OCCCC[C@@H](C)Oc2ccc(NS(=O)(=O)c3ccc(C)cc3)cc2C(=O)N([C@@H](C)CO)C[C@@H]1C,6.28% (inactive)

# Same assay, conditions: recombinant ERAP2, Arg-AMC cleavage fluorescence, 1 h; at 8 µM (top of the series)
row,Compound,activation
1,CCCN(C)C[C@@H]1OCCCC[C@@H](C)Oc2ccc(NS(=O)(=O)c3ccc(OC)cc3)cc2C(=O)N([C@H](C)CO)C[C@@H]1C,15.1% (inactive)

# Same assay, conditions: recombinant ERAP2, Arg-AMC cleavage fluorescence, 1 h; at 10 µM (top of the series)
row,Compound,activation
1,CCCN(C)C[C@@H]1OCCCC[C@@H](C)Oc2ccc(NS(=O)(=O)c3ccc(C)cc3)cc2C(=O)N([C@H](C)CO)C[C@@H]1C,6.04% (inactive)
2,CCCN(C)C[C@@H]1OCCCC[C@@H](C)Oc2ccc(NS(=O)(=O)c3c(C)noc3C)cc2C(=O)N([C@H](C)CO)C[C@@H]1C,-3.16% (inactive)
3,C[C@@H]1CCCCO[C@@H](CN(C)C)[C@H](C)CN([C@@H](C)CO)C(=O)c2cc(NC(=O)Nc3ccc(C(F)(F)F)cc3)ccc2O1,14.3% (inactive)

# Same assay, conditions: recombinant ERAP2, Arg-AMC cleavage fluorescence, 1 h; at 11 µM (top of the series)
row,Compound,activation
1,C[C@@H]1CN([C@H](C)CO)C(=O)c2cc(NC(=O)Nc3ccc(F)cc3)ccc2O[C@H]1CN(C)Cc1ccc(C(=O)O)cc1,1.24% (inactive)
2,C[C@@H]1CCCCO[C@@H](CN(C)C)[C@@H](C)CN([C@@H](C)CO)C(=O)c2cc(NS(=O)(=O)c3ccc(F)cc3)ccc2O1,5.3% (inactive)
3,C[C@H](CO)N1C[C@H](C)[C@H](CN(C)CC2CCCCC2)Oc2c(NC(=O)Nc3ccc(C(F)(F)F)cc3)cccc2C1=O,11.4% (inactive)
4,C[C@@H]1CCCCO[C@H](CN(C)Cc2ccc(C(=O)O)cc2)[C@@H](C)CN([C@H](C)CO)C(=O)c2cc(NC(=O)Nc3ccc(C(F)(F)F)cc3)ccc2O1,2.62% (inactive)
5,CCCNC(=O)C[C@@H]1CC[C@@H]2[C@H](COC[C@H](O)CN2C(=O)Nc2cccc(Cl)c2)O1,22.2% (inactive)
6,COc1cccc(S(=O)(=O)N(C)C[C@@H]2Oc3ncccc3C(=O)N([C@H](C)CO)C[C@@H]2C)c1,4.98% (inactive)
7,CCC(=O)N(C)C[C@H]1Oc2ncc(C#Cc3ccncc3)cc2C(=O)N([C@H](C)CO)C[C@H]1C,-5.99% (inactive)
8,O=C(CSc1cn[nH]n1)Nc1cccc(C(=O)O)c1,13.8% (inactive)
9,COc1ccc(CN(C)C[C@@H]2OCCCC[C@@H](C)Oc3ccc(NS(=O)(=O)c4cccs4)cc3C(=O)N([C@H](C)CO)C[C@H]2C)cc1,1.04% (inactive)
10,C[C@H](CO)N1C[C@H](C)[C@H](CN(C)CC2CCCCC2)Oc2c(NC(=O)Nc3ccc4c(c3)OCO4)cccc2C1=O,-0.254% (inactive)
11,CNC[C@H]1OCCCC[C@@H](C)Oc2ccc(NS(=O)(=O)c3ccc(C)cc3)cc2C(=O)N([C@@H](C)CO)C[C@H]1C,1.54% (inactive)
12,COc1ccc(CN(C)C[C@H]2OCCCC[C@@H](C)Oc3ccc(NS(=O)(=O)c4cccs4)cc3C(=O)N([C@H](C)CO)C[C@H]2C)cc1,3.67% (inactive)
13,Cc1ccccc1-c1ccc2c(c1)O[C@@H](CN(C)Cc1ccc(C(=O)O)cc1)[C@@H](C)CN([C@H](C)CO)S2(=O)=O,8.67% (inactive)
14,COc1ccc(NC(=O)Nc2ccc3c(c2)C(=O)N([C@H](C)CO)C[C@@H](C)[C@H](CN(C)Cc2ccc(C(=O)O)cc2)OCCCC[C@@H](C)O3)cc1,12.3% (inactive)
15,Cc1ccc(S(=O)(=O)Nc2ccc3c(c2)C(=O)N([C@@H](C)CO)C[C@H](C)[C@H](CN(C)C)OCCCC[C@@H](C)O3)cc1,14.1% (inactive)
16,CCN(CCCl)c1cc(CN(C)C)cc(NC(=O)c2ccc(C(=O)Nc3cc(CN(C)C)cc(N(CC)CCCl)c3)cc2)c1,-8.9% (inactive)
17,COc1ccc(CN(C)C[C@H]2OCCCC[C@@H](C)Oc3ccc(NS(=O)(=O)c4cccs4)cc3C(=O)N([C@@H](C)CO)C[C@H]2C)cc1,2.79% (inactive)
18,C[C@H]1CN([C@@H](C)CO)C(=O)c2cccc(NC(=O)Nc3ccc4c(c3)OCO4)c2O[C@@H]1CN(C)CC1CC1,12.8% (inactive)
19,C[C@H]1CN([C@@H](C)CO)C(=O)c2cccc(NC(=O)Nc3ccc(C(F)(F)F)cc3)c2O[C@@H]1CN(C)CC1CC1,-16.1% (inactive)

row,Compound,activation
1,Cc1noc(C)c1NC(=O)N(C)C[C@@H]1Oc2c(NC(=O)Nc3ccc(F)cc3)cccc2C(=O)N([C@H](C)CO)C[C@@H]1C,18.4% (inactive)
2,CCC(=O)N(C)C[C@@H]1Oc2ncc(C#Cc3ccncc3)cc2C(=O)N([C@@H](C)CO)C[C@@H]1C,-17.3% (inactive)
3,C[C@@H]1CCCCO[C@@H](CN(C)CC2CCCCC2)[C@H](C)CN([C@@H](C)CO)C(=O)c2cc(NC(=O)Nc3ccccc3)ccc2O1,12.1% (inactive)
4,C[C@H](CO)N1C[C@H](C)[C@H](CN(C)Cc2ccc(C(=O)O)cc2)Oc2c(NC(=O)Nc3ccccc3)cccc2C1=O,22.8% (inactive)
5,COc1ccc(NC(=O)Nc2ccc3c(c2)C(=O)N([C@@H](C)CO)C[C@@H](C)[C@H](CN(C)Cc2ccc(C(=O)O)cc2)OCCCC[C@H](C)O3)cc1,37.6% (inactive)
6,COc1ccc(C(=O)O)cc1S(=O)(=O)Nc1cc(C(F)(F)F)ccc1N1CCCCC1,8.35% (inactive)
7,C[C@@H]1CCCCO[C@@H](CN(C)S(C)(=O)=O)[C@@H](C)CN([C@@H](C)CO)C(=O)c2cc(NS(=O)(=O)c3ccc(Cl)cc3)ccc2O1,9.01% (inactive)
8,Cc1noc(C)c1NC(=O)Nc1ccc2c(c1)C(=O)N([C@H](C)CO)C[C@@H](C)[C@@H](CN(C)Cc1ccc(C(F)(F)F)cc1)OCCCC[C@@H](C)O2,-2.75% (inactive)
9,CO[C@@H]1CN(C)C(=O)c2ccc(NC(=O)Nc3cccc(Cl)c3)cc2OC[C@@H](C)NC[C@H]1C,3.9% (inactive)
10,COc1ccc(CN(C)C[C@@H]2OCCCC[C@@H](C)Oc3ccc(NS(=O)(=O)c4c(C)noc4C)cc3C(=O)N([C@@H](C)CO)C[C@@H]2C)cc1,-1% (inactive)
11,C[C@H]1CN([C@@H](C)CO)C(=O)c2cccc(NC(=O)Nc3ccc(C(F)(F)F)cc3)c2O[C@@H]1CN(C)C,2.76% (inactive)
12,CCn1cc(CN2CCCC(C(=O)Nc3ccc(-c4nc5ccccc5[nH]4)cc3)C2)c(C)n1 (configuration not stated),4.78% (inactive)
13,COc1ccc(CN(C)C[C@@H]2OCCCC[C@@H](C)Oc3ccc(NS(=O)(=O)c4cccs4)cc3C(=O)N([C@@H](C)CO)C[C@H]2C)cc1,-1.25% (inactive)
14,C[C@@H]1CN([C@H](C)CO)C(=O)c2cccc(NC(=O)Nc3ccccc3)c2O[C@@H]1CN(C)Cc1ccc(C(=O)O)cc1,23.3% (inactive)
15,NC(=NCCc1c[nH]c2ccccc12)NS(=O)(=O)c1cc(F)ccc1F,9.24% (inactive)
16,COc1ccc(CN(C)C[C@@H]2OCCCC[C@H](C)Oc3ccc(NS(=O)(=O)c4cccs4)cc3C(=O)N([C@@H](C)CO)C[C@@H]2C)cc1,20.4% (inactive)
17,O=C(C[C@H]1CC[C@@H]2[C@H](COC[C@@H](O)CN2C(=O)Nc2cccc(Cl)c2)O1)N1CCCCC1,32.4% (inactive)
18,COc1ccc(S(=O)(=O)Nc2ccc3c(c2)C(=O)N([C@@H](C)CO)C[C@H](C)[C@H](CN(C)C)OCCCC[C@@H](C)O3)cc1,5.02% (inactive)
19,COc1ccc(NC(=O)Nc2cccc3c2O[C@H](CN(C)Cc2ccc(C(=O)O)cc2)[C@H](C)CN([C@H](C)CO)C3=O)cc1,15.1% (inactive)
